Measurements published in US8974830B2, “Particles and contrast agent including the same for optical imaging” (Canon Kabushiki Kaisha, priority 2012, dated 2015).

Assay: Accumulation rate in popliteal lymph nodes after subcutaneous plantar administration
Type: in vivo, mouse
Conditions: 24 hours after subcutaneous plantar administration, 13 nmol dye
Experimental: PNP10 prepared in EXAMPLE 10 was administered subcutaneously into the plantar surface of a mouse. Extirpation was performed 24 hours after administration. After homogenization, extraction was performed with an organic solvent to measure the accumulation rate in the popliteal lymph nodes. The amount administered was 13 nmol in terms of the amount of the dye. As a comparative example, an aqueous solution of ICG was also administered, and the accumulation rate was measured. The accumulation rate of PNP10 in the lymph nodes was about 80 times higher than that of ICG.

Accumulation rate in lymph node (% ID): 0.1 % ID
SMILES: CC1(C)C(/C=C/C=C/C=C/C=C2\N(CCCCS(=O)(=O)O)c3ccc4ccccc4c3C2(C)C)=[N+](CCCCS(=O)(=O)[O-])c2ccc3ccccc3c21 [ICG, Indocyanine green]
